# Measured values as given in paper PMC5078989, “Targeted inhibition of the COP9 signalosome for treatment of cancer” (Nature Communications, 2016).
# System: panel of cancer cell lines
# Test: Cell viability (CellTiter-Glo) dose-response across cancer cell line panel;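 on EC50: after 72 h compound incubation with CellTiter-Glo ATP readout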
# Format: cell-based, human
# Settings: for EC50: Homo sapiens
# Excerpt: Next, we explored the effect of CSN5 inhibition on the viability of cancer cells. To obtain a comprehensive picture, we generated dose–response curves with a CSN5 inhibitor across more than 500 cancer cell lines in a previously described standardized setting[47] (Supplementary Data 1).
# A standardized CellTiter-Glo Assay (Promega #G7570) based on the quantification of ATP was applied according to the manufacturer's protocol to measure the amount of viable cells in culture. In brief, cells were seeded into 384-well plates at optimal density for each cell line. After 4 h, compounds were added at different concentrations in growth medium and incubated for another 72 h in a humidifying chamber at 37 °C and 5% CO2. […] EC50 values were calculated from the plot of percentage of inhibition versus inhibitor concentration using the nonlinear regression analysis software Origin 7.5SR6 (OriginLab Corp.).
smiles,measurement,setting,value
NS(=O)(=O)OC[C@@H]1C[C@@H](n2ccc3c(N[C@H]4CCc5ccccc54)ncnc32)C[C@@H]1O [MLN4924],AMAX,A4/Fuk,-96.9287
same,AMAX,A101D,-92.8172
same,AMAX,A549,-65.6237
same,AMAX,A-704,-78.0973
same,AMAX,AM-38,-93.2889
same,AMAX,AU565,-66.5254
same,AMAX,AsPC-1,-50.1525
same,AMAX,BFTC-909,-84.6841
same,AMAX,BHY,-77.3535
same,AMAX,BICR 6,-87.6265
same,AMAX,BICR 16,-96.2639
same,AMAX,C32,-75.1217
same,AMAX,COLO 201,-80.4634
same,AMAX,Caki-1,-69.6053
same,AMAX,FaDu,-85.8426
same,AMAX,GP2d,-76.2986
same,AMAX,HARA,-86.2104
same,AMAX,HCC1143,-80.6145
same,AMAX,HCC-15,-95.7573
same,AMAX,HD-MY-Z,-88.7975
same,AMAX,HEC-151,-95.1252
same,AMAX,HEL,-97.9201
same,AMAX,HLC-1,-88.3206
same,AMAX,HLF,-88.8149
same,AMAX,HSC-4,-89.1597
same,AMAX,Hep3B,-41.8233
same,EC50,59M,0.631 µM
same,EC50,92.1,0.213 µM
same,EC50,639-V,0.191 µM
same,EC50,697,0.373 µM
same,EC50,769-P,0.199 µM
same,EC50,"786-0, 786-O",0.373 µM
same,EC50,"1321-N1, 1321N1",0.304 µM
same,EC50,8505C,0.271 µM
same,EC50,A4/Fuk,0.34 µM
same,EC50,A101D,0.403 µM
same,EC50,"A 172, A172",0.18 µM
same,EC50,"A204, A-204",0.267 µM
same,EC50,"A498, A-498",0.245 µM
same,EC50,"A549, A549",3.6 µM
same,EC50,"A673, A-673",0.0881 µM
same,EC50,"A704, A-704",0.622 µM
same,EC50,"A2058, A2058",0.316 µM
same,EC50,"A2780, A2780",0.33 µM
same,EC50,"A-375, A-375",0.281 µM
same,EC50,"ACC-MESO-1, ACC-MESO-1",1.56 µM
same,EC50,"AM-38, AM-38",0.297 µM
same,EC50,AML-193,0.901 µM
same,EC50,"AN3-CA, AN3 CA",0.309 µM
same,EC50,"AU565, AU565",0.505 µM
same,EC50,BC-3C,1.97 µM
same,EC50,BEN,1.1 µM
same,EC50,"BFTC-909, BFTC-909",0.65 µM
same,EC50,BHY,1.87 µM
same,EC50,BICR 6,0.181 µM
same,EC50,BICR 16,0.22 µM
same,EC50,BICR 18,11.5 µM
same,EC50,BICR 31,0.156 µM
same,EC50,"BT-16, BT-16",0.098 µM
same,EC50,"BT-474, BT-474",0.871 µM
same,EC50,"BT-549, BT-549",0.382 µM
same,EC50,"BXPC-3, BxPC-3",0.53 µM
same,EC50,C3A,> 30 µM
same,EC50,"C32, C32",1.14 µM
same,EC50,"CAKI-1, Caki-1",0.327 µM
same,EC50,"CAKI-2, Caki-2",2.36 µM
same,EC50,CAL-12T,1.21 µM
same,EC50,"CAL-27, CAL 27",0.161 µM
same,EC50,CAL-29,0.283 µM
same,EC50,"CAL-54, CAL-54",0.772 µM
same,EC50,"CAL-85-1, CAL-85-1",0.144 µM
same,EC50,"CAL-120, CAL-120",0.154 µM
same,EC50,"CAL-148, CAL-148",> 30 µM
same,EC50,"CAMA-1, CAMA-1",0.0943 µM
same,EC50,"CAPAN-1, Capan-1",0.301 µM
same,EC50,CAS-1,14 µM
same,EC50,"CCRF-HSB-2, CCRF-HSB-2",0.296 µM
same,EC50,"CEM/C1, CEMC1",0.257 µM
same,EC50,"CFPAC-1, CFPAC-1",0.703 µM
same,EC50,CL-34,0.0896 µM
same,EC50,CMK,0.138 µM
same,EC50,"CMK-86, CMK-86",0.23 µM
same,EC50,"COLO 201, COLO 201",0.268 µM
same,EC50,"COLO 205, COLO 205",0.268 µM
same,EC50,"COLO 320, COLO-320",0.883 µM
same,EC50,"COLO 699, COLO-699",0.89 µM
same,EC50,"COLO 704, COLO-704",0.384 µM
same,EC50,"COLO-678, COLO-678",4.89 µM
same,EC50,"COLO-679, COLO-679",0.133 µM
same,EC50,"COLO-741, COLO 741",0.13 µM
same,EC50,"COLO-829, COLO 829",0.319 µM
same,EC50,"COR-L23, COR-L23",1.66 µM
same,EC50,"COR-L47, COR-L47",0.0496 µM
same,EC50,"COR-L105, COR-L105",0.469 µM
same,EC50,"COV362, COV362",0.175 µM
same,EC50,COV644,23.6 µM
same,EC50,"CW-2, CW-2",6.31 µM
same,EC50,"Calu-1, Calu-1",2.34 µM
same,EC50,"Calu-6, Calu-6",0.294 µM
same,EC50,"ChaGo-K-1, ChaGo-K-1",0.778 µM
same,EC50,"Ci-1, CI-1",0.0282 µM
same,EC50,DAN-G,4.14 µM
same,EC50,DB,0.732 µM
same,EC50,"DLD-1, DLD-1",0.641 µM
same,EC50,"DMS-53, DMS 53",22.8 µM
same,EC50,"DMS-153, DMS 153",0.0429 µM
same,EC50,"DMS-273, DMS 273",0.958 µM
same,EC50,"DND41, DND-41",0.513 µM
same,EC50,"DU-4475, DU4475",0.0994 µM
same,EC50,Daoy,0.24 µM
same,EC50,"Detroit 562, Detroit 562",0.478 µM
same,EC50,"EBC-1, EBC-1",0.341 µM
same,EC50,"EFM-19, EFM-19",1.39 µM
same,EC50,"EOL1, EOL-1",0.0653 µM
same,EC50,FaDu,0.231 µM
same,EC50,"G-401, G-401",1.55 µM
same,EC50,"G-402, G-402",0.811 µM
same,EC50,GAMG,0.373 µM
same,EC50,"GB-1, GB-1",0.479 µM
same,EC50,"GDM-1, GDM-1",0.188 µM
same,EC50,"GI-1, GI-1",0.207 µM
same,EC50,GP2d,0.759 µM
same,EC50,"Granta-519, GRANTA-519",0.117 µM
same,EC50,H4,0.229 µM
same,EC50,HARA,0.64 µM
same,EC50,"HCC15, HCC-15",0.414 µM
same,EC50,"HCC44, HCC-44",0.167 µM
same,EC50,"HCC70, HCC70",0.39 µM
same,EC50,"HCC78, HCC-78",0.183 µM
same,EC50,"HCC95, HCC-95",0.105 µM
same,EC50,"HCC827, HCC827",7.72 µM
same,EC50,"HCC1143, HCC1143",1.67 µM
same,EC50,"HCC1187, HCC1187",0.348 µM
same,EC50,"HCC1500, HCC1500",6.58 µM
same,EC50,"HCC1588, HCC-1588",1.37 µM
same,EC50,"HCC1806, HCC1806",0.0701 µM
same,EC50,"HCC1954, HCC1954",0.417 µM
same,EC50,"HCC4006, HCC4006",1.53 µM
same,EC50,HCC-56,2.46 µM
same,EC50,HCC-1359,0.375 µM
same,EC50,HCC-1833,2.35 µM
same,EC50,"HCT-15, HCT-15",0.934 µM
same,EC50,HD-MY-Z,0.124 µM
same,EC50,HEC-50B,0.961 µM
same,EC50,HEC-151,0.225 µM
